What was measured:
[1] = test system: H3, TP53, CDKN1A, BCL-2 and BAX genes in lung cancer A549; assay: RT-qPCR gene expression, A549; format: cell-based, human; conditions: A549, 0.5 µg/mL, 24 h
Description: (§1) In this method the gene transcriptional activities of proliferation marker (H3), cell cycle regulator (TP53 and CDKNIA), and intracellular apoptosis pathway (BCL-2 and BAX) were analyzed. It has been known that the growth, metabolism, and eventual death of the cells in the body are controlled by hundreds of genes working together. The gene encoding histone H3 plays a crucial role in regulation of the expression of the genetic information included in the DNA.
(§2) Genes trancriptional activity (H3, TP53, CDKN1A, BCL-2, and BAX) was evaluated by real time RT-qPCR with OPTICON TM DNA Engine (MJ Research, Watertown, MA, USA) and QuantTect® SYBR® Green RT-PCR Kit (Quiagen, Valencia, CA). Cells were exposed to compound 4 at a 0.5 µg/mL concentration for 24 h. The RNA extraction was made by using Quick-RNA™ Kit MiniPrep (ZYMO […]). Total RNA integrity was analysed in 1.2% agarose electrophoresis with added ethidium bromide. The quantity and purity of extracted total RNA were determined by using spectrophotometric analysis with HP845 (Hewlett Packard, Waldbronn, Germany) spectrophotometer. The statistical analysis was performed using the Statistica 8.0 software. All values were expressed as means ± SE.

lung cancer A549 = assay: WST-1 cell proliferation assay, A549; format: cell-based, human; conditions: Homo sapiens; A549, WST-1, 72 h; read-out: Anticancer Activity IC50 A549
Description: (§3) Encouraged by our previous promising results in the field of antiproliferative activity of dipyridothiazines as well as by the good anticancer activity of the 1,2,3-triazoles, we decided to combine the biological potentials of dipyridothiazines and triazole moieties, hoping to obtain compounds with better activity. The antiproliferative activity of all 20 new 10-substituted 1,2,3-triazole derivatives of dipyridothiazines was tested in vitro against cancer cell lines: glioblastoma SNB-19, colorectal carcinoma Caco-2, lung cancer A549, and breast cancer MDA-MB231 using the WST-1 assay. Normal human fibroblasts NHDF were used as a control.
(§4) All dipyridothiazines with 1,2,3-triazole substituents (1–4)b–f were evaluated for their anticancer activity using four cultured cell lines: SNB-19 (human glioblastoma, DSMZ—German Collection of Microorganisms and Cell Cultures, Braunschweig, Germany), Caco-2 (human colon adenocarcinoma, DSMZ—German Collection of Microorganisms and Cell Cultures, Braunschweig, Germany), A549 (human lung carcinoma, ATCC, Manassas, VA, USA) and MDA-MB231 (human breast adenocarcinoma, ATCC, Manassas, VA, USA), and NHDF (human dermal fibroblast cell line, ATCC, Manassas, VA, USA. The cultured cells were kept at 37 °C and 5% CO2. The cells were seeded (1 × 10^4 cells/well/100 µL DMEM supplemented with 10% FCS and streptomycin and penicillin) using 96-well plates (Corning). The cells were counted in a hemocytometer (Burker’s chamber) using a phase contrast Olympus IX50 microscope equipped with Sony SSC-DC58 AP camera and Olympus DP10 digital camera.
(§5) Antiproliferative effect of the obtained compounds on the cancer cells was determined using the cell proliferation reagent WST-1 assay (Roche Diagnostics, Mannheim, Germany). This assay is based on the viable cell’s ability to cleave the bright red-colored tetrazolium salt (2-(4-iodophenyl)-3-(4-nitrophenyl)-5-(2,4-disulfophenyl)-2H-tetrazolium, monosodium salt) to dark red soluble formazan by cellular enzymes. An increase in the amount of formazan dye formed correlates to the number of metabolically active cells in the culture. The formazan dye produced by metabolically active cells is quantified by a scanning ELISA reader by measuring the absorbance of the dye solution at appropriate wavelengths. The examined cells were exposed to the tested compounds for 72 h at various concentrations between 0.1 μg/mL and 100 μg/mL (prepared initially at concentration of 1 mg/mL in DMSO). The cells were incubated with WST-1 (10 μL) for 1 h and the absorbance of the samples against a background control was measured at 450 nm using a microplate reader with a reference wavelength at 600 nm. The results are expressed as means of at least two independent experiments performed in triplicate.

[2] = test system: colorectal carcinoma Caco-2; assay: WST-1 cell proliferation assay, Caco-2; format: cell-based; conditions: Homo sapiens; Caco-2, WST-1, 72 h; read-out: Anticancer Activity IC50 Caco-2
Description: (§6) The antiproliferative activity of all 20 new 10-substituted 1,2,3-triazole derivatives of dipyridothiazines was tested in vitro against cancer cell lines: glioblastoma SNB-19, colorectal carcinoma Caco-2, lung cancer A549, and breast cancer MDA-MB231 using the WST-1 assay. Normal human fibroblasts NHDF were used as a control.
as §4, §5

[3] = test system: H3, TP53, CDKN1A, BCL-2 and BAX genes in colorectal carcinoma Caco-2; assay: RT-qPCR gene expression, Caco-2; format: cell-based, human
Description: as §1, §2

[4] = test system: H3, TP53, CDKN1A, BCL-2 and BAX genes in SNB-19, Caco-2, A549 and MDA-MB231; assay: RT-qPCR gene expression, summary over the cancer cell lines; format: cell-based, human
Description: as §1, §2

[5] = test system: H3, TP53, CDKN1A, BCL-2 and BAX genes in breast cancer MDA-MB231; assay: RT-qPCR gene expression, MDA-MB231; format: cell-based, human
Description: as §1, §2

breast cancer MDA-MB231 = assay: WST-1 cell proliferation assay, MDA-MB231; format: cell-based, human; conditions: Homo sapiens, MDA-MB-231; MDA-MB231, WST-1, 72 h; read-out: Anticancer Activity IC50 MDA-MB231
Description: as §3, §4, §5

glioblastoma SNB-19 = assay: WST-1 cell proliferation assay, SNB-19; format: cell-based, human; conditions: Homo sapiens; SNB-19, WST-1, 72 h; read-out: Anticancer Activity IC50 SNB-19
Description: as §3, §4, §5

[6] = test system: SNB-19, Caco-2, A549 and MDA-MB231 cancer cell lines; assay: WST-1 assay, summary over the cancer cell line panel; format: cell-based, human; conditions: Homo sapiens; span over SNB-19, Caco-2, A549, MDA-MB231; read-out: IC50 across all investigated cancer cell lines
Description: as §6, §4, §5

[7] = test system: normal human fibroblasts NHDF; assay: WST-1 cytotoxicity assay, normal fibroblasts NHDF; format: cell-based
Description: as §3, §4, §5

[8] = test system: H3, TP53, CDKN1A, BCL-2 and BAX genes in glioblastoma SNB-19; assay: RT-qPCR gene expression, SNB-19; format: cell-based, human; conditions: SNB-19, 0.5 µg/mL, 24 h
Description: as §1, §2

Clc1ccc(Cn2cc(CN3c4cccnc4Sc4cccnc43)nn2)cc1 [1d, 10-[(1-(4-Chlorobenzyl)-1H-1,2,3-triazol-4-yl)methyl]-1,6-diazaphenothiazine]
BAX number of mRNA copies/μg total RNA [1]: 835+/−231 mRNA Copies/μg Total RNA
BCL-2/BAX gene expression ratio [1]: 18
BCL-2 number of mRNA copies/μg total RNA [1]: 15631+/−2296 mRNA Copies/μg Total RNA
CDKN1A number of mRNA copies/μg total RNA [1]: 969+/−137 mRNA Copies/μg Total RNA
H3 number of mRNA copies/μg total RNA [1]: 18+/−5 mRNA Copies/μg Total RNA
TP53 number of mRNA copies/μg total RNA [1]: 54+/−19 mRNA Copies/μg Total RNA
IC50 (lung cancer A549): 250 nM
IC50 [2]: 250 nM
effect on expression of BCL-2 (in words) ([3]; Caco-2): slight increase
BAX number of mRNA copies/μg total RNA ([3]; Caco-2, 0.5 µg/mL, 24 h): 969+/−264 mRNA Copies/μg Total RNA
BCL-2/BAX gene expression ratio ([3]; Caco-2, 0.5 µg/mL, 24 h): 743
BCL-2 number of mRNA copies/μg total RNA ([3]; Caco-2, 0.5 µg/mL, 24 h): 723708+/−217134 mRNA Copies/μg Total RNA
CDKN1A number of mRNA copies/μg total RNA ([3]; Caco-2, 0.5 µg/mL, 24 h): 260+/−21 mRNA Copies/μg Total RNA
H3 number of mRNA copies/μg total RNA ([3]; Caco-2, 0.5 µg/mL, 24 h): 45+/−3 mRNA Copies/μg Total RNA
TP53 number of mRNA copies/μg total RNA ([3]; Caco-2, 0.5 µg/mL, 24 h): 193+/−16 mRNA Copies/μg Total RNA
effect on expression of BCL-2 (in words) ([4]; SNB-19, A549 and MDA-MB231): remarkably reduced
effect on CDKN1A copies (in words) ([4]; all cancer cells): strong decline
effect on mRNA copy number of the histone H3 gene (in words) ([4]; all cancer lines): strongly changed
effect on expression of BAX (in words) ([4]; all investigated cancer cell lines): decrease
effect on amount of mRNA copies of TP53 (in words) ([4]; all investigated cancer lines): significantly interfered
apoptosis pathway from gene expression ratio BCL-2/BAX (in words) ([5]; MDA-MB231): activation of the mitochondrial apoptosis
BAX number of mRNA copies/μg total RNA ([5]; MDA-MB231, 0.5 µg/mL, 24 h): 221+/−16 mRNA Copies/μg Total RNA
BCL-2 number of mRNA copies/μg total RNA ([5]; MDA-MB231, 0.5 µg/mL, 24 h): 16495+/−4607 mRNA Copies/μg Total RNA
CDKN1A number of mRNA copies/μg total RNA ([5]; MDA-MB231, 0.5 µg/mL, 24 h): 577+/−308 mRNA Copies/μg Total RNA
H3 number of mRNA copies/μg total RNA ([5]; MDA-MB231, 0.5 µg/mL, 24 h): 8+/−6 mRNA Copies/μg Total RNA
TP53 number of mRNA copies/μg total RNA ([5]; MDA-MB231, 0.5 µg/mL, 24 h): 46+/−20 mRNA Copies/μg Total RNA
IC50 (breast cancer MDA-MB231): 510 nM
IC50 (glioblastoma SNB-19): 4660 nM
IC50 [6]: 250 to 4660 nM
cytotoxicity against normal human fibroblasts (in words) ([7]; NHDF): relatively low cytotoxicity
IC50 ([7]; normal human fibroblasts NHDF, WST-1, 72 h): > 100000 nM
BAX number of mRNA copies/μg total RNA [8]: 220+/−18 mRNA Copies/μg Total RNA
BCL-2 number of mRNA copies/μg total RNA [8]: 17497+/−4607 mRNA Copies/μg Total RNA
CDKN1A number of mRNA copies/μg total RNA [8]: 308+/−51 mRNA Copies/μg Total RNA
H3 number of mRNA copies/μg total RNA [8]: 52+/−11 mRNA Copies/μg Total RNA
TP53 number of mRNA copies/μg total RNA [8]: 128+/−24 mRNA Copies/μg Total RNA
